What follows are compounds tested against T1, Recombinant human sEH (Homo sapiens, UniProt P34913) (assay: Inhibition of human soluble epoxide hydrolase (IC50 assay)).
T1 construct: made in house
T1 sequence (P34913 1-555): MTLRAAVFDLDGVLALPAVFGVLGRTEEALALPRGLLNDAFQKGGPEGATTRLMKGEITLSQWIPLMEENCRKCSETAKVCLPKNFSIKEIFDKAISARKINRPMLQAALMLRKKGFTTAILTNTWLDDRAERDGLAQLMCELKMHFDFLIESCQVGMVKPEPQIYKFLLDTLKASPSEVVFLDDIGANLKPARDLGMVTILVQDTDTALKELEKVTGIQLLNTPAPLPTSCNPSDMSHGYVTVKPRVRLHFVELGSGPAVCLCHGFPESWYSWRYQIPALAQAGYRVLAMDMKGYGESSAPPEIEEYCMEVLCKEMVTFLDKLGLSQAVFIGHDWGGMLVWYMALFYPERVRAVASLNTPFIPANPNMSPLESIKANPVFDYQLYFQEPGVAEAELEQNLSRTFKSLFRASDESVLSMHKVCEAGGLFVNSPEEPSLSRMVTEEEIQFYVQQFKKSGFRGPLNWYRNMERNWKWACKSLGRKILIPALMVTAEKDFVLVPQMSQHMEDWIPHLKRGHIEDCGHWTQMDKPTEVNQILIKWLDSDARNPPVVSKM
Assay type: biochemical
Description: This example provides assays and illustrates the inhibition of human soluble epoxide hydrolases by compounds of the invention.
Recombinant human sEH was produced in a baculovirus expression system and purified by affinity chromatography. The preparations were at least 97% pure as judged by SDS-PAGE and scanning densitometry. No detectable esterase or glutathione transferase activity, which can interfere with this sEH assay, was observed. Protein concentration was quantified by using the Pierce BCA assay using Fraction V bovine serum albumin as the calibrating standard.
IC50 values were determined in one of three methods. One method uses racemic 4-nitrophenyl-trans-2,3-epoxy-3-phenylpropyl carbonate as substrate. Enzyme (0.24 μM human sEH) was incubated with inhibitors for 5 min in sodium phosphate buffer, 0.1 M pH 7.4, at 30° C. before substrate introduction([S]=40 μM). Activity was assessed by measuring the appearance of the 4-nitrophenolate anion at 405 nm at 30° C. during 1 min (Spectramax 200; Molecular Devices). Assays were performed in triplicate. 1050 is a concentration of inhibitor, which reduces enzyme activity by 50%, and was determined by regression of at least five datum points with a minimum of two points in the linear region of the curve on either side of the IC50. The curve was generated from at least three separate runs, each in triplicate.
Other IC50 values were determined using the procedure described in Analytical
Biochemistry 343 66-75 (2005) using cyano(6-methoxy-naphthalen-2-yl)methyl trans-[(3-phenyloxiran-2-yl)methyl]carbonate as a substrate. Enzymes (0.96 nM for human sEH) were incubated with inhibitors ([I]=0.5-10,000 nM) for 5 min in BisTris-HCl buffer (25 mM, pH 7.0, containing 0.1 mg/ml of BSA) at 30° C. prior to substrate introduction ([S]=5 µM). Enzyme activity was measured by monitoring the appearance of 6-methoxy-2-naphthaldehyde. Assays were performed in triplicate. By definition, IC50 values are concentrations of inhibitor that reduce enzyme activity by 50%. IC50 values were determined by regression of at least five datum points, with a minimum of two datum points in the linear region of the curve on either side of the IC50 values. The curve was generated from at least three separate runs, each in triplicate.
Other inhibition potencies were determined using a fluorescent based high-throughput assay. Inhibitors in solution at 10 mM in DMSO were serially diluted by 10-fold increment in Bis/Tris HCl buffer (25 mM pH 7.0) containing 0.1 mg/mL of BSA (Buffer A). In black 96-well plates, 20 µL of the inhibitor dilution or buffer were delivered in every well, and then 130 μL of Human sEH at ˜0.4 μg/mL in solution in Buffer A were added to each well. The plate was then mixed and incubated at room temperature for 5 minutes. Fifty microliters of substrate ((3-Phenyl-oxiranyl)-acetic acid cyano-(6-methoxy-naphthalen-2-yl)-methyl ester; PHOME) at 200 μM in solution in 96:4 Buffer A:DMSO was then added to each well to give [S]final=50 μM and [E]final=˜4 nM. The plate was then mixed and incubated in the dark at room temperature (˜25° C.) for 90 min. Activity was measured by determining the relative quantity of 6-methoxy-2-naphthaldehyde formed with an excitation wavelength of 316 nm and an emission wavelength of 460 nm measured with a SpectraMax M-2 fluorometer (molecular Devices, Sunnyvale, Calif.).
Assays were conducted with the compounds indicated in the table below, as described above.

In order of falling IC50:
1. C=C(C)c1cccc(C(C)(C)NC(=O)Nc2cccc(C(=O)O)c2)c1 [Compound 1718]  7920 nM
2. CC(C)c1cccc(C(C)(C)NC(=O)NCCc2ccc(C(=O)O)cc2)c1 [Compound 1807]  2890 nM
3. CC(C)c1cccc(C(C)(C)NC(=O)Nc2cccc(C(=O)O)c2)c1 [Compound 1719]  1610 nM
4. CC(C)c1cccc(C(C)(C)NC(=O)NC2CCC(C(=O)O)CC2)c1 (stereo not drawn) [Compound 1852]  555 nM
5. CC(=O)N1CCC(NC(=O)NC(C)(C)c2cccc(C(C)C)c2)CC1 [Compound 2064]  444 nM
6. CC(C)c1cccc(C(C)(C)NC(=O)NC2CCC(O)CC2)c1 (stereo not drawn) [Compound 1892]  393 nM
7. CCOC(=O)c1cccc(NC(=O)NC(C)(C)c2cccc(C(C)C)c2)c1 [Compound 1717]  158 nM
8. CC(C)c1cccc(C(C)(C)NC(=O)NC2CCN(S(C)(=O)=O)CC2)c1 [Compound 2048]  97.6 nM
9. C=C(C)c1cccc(C(C)(C)NC(=O)N[C@H]2CC[C@H](O)CC2)c1 [Compound 1887, trans-1-(4-Hydroxy-cyclohexyl)-3-[1-(3-isopropenyl)-1-methyl-ethyl]-urea]  76.7 nM
10. CC(C)c1cccc(C(C)(C)NC(=O)NCCCCCCCCCCCC(=O)O)c1 [Compound 1808]  52.5 nM
11. C=C(C)c1cccc(C(C)(C)NC(=O)Nc2cccc(C(=O)OCC)c2)c1 [Compound 1716]  41.3 nM
12. C=C(C)c1cccc(C(C)(C)NC(=O)NCCCCCCCCCCCC)c1 [Compound 1714]  33 nM
13. CC(C)c1cccc(C(C)(C)NC(=O)NC2CCN(C(=O)OC(C)(C)C)CC2)c1 [Compound 1868]  21.6 nM
14. CC(C)c1cccc(C(C)(C)NC(=O)NCCCCc2ccccc2)c1 [Compound 1805]  11.5 nM
15. C=C(C)c1cccc(C(C)(C)NC(=O)NC2CCCCC2)c1 [Compound 1520]  11.4 nM
16. CCCCCCCCCCCCNC(=O)NC(C)(C)c1cccc(C(C)C)c1 [Compound 1715]  10.9 nM
17. CC(C)c1cccc(C(C)(C)NC(=O)NCc2ccc(Oc3ccccc3)cc2)c1 [Compound 1955]  10.6 nM
18. CC(C)c1cccc(C(C)(C)NC(=O)N[C@H]2CC[C@H](Oc3ccc(C#N)cc3)CC2)c1 [Compound 1908, trans-1-[4-(4-Cyano-phenoxy)-cyclohexyl]-3-[1-(3-isopropyl-phenyl)-1-methyl-ethyl]-urea]  9.8 nM
19. CC(C)c1cccc(C(C)(C)NC(=O)NC2CCCCC2)c1 [Compound 1713, 1-cyclohexyl-3-(2-(3-isopropylphenyl)propan-2-yl)urea]  7.5 nM
20. CC(C)c1cccc(C(C)(C)NC(=O)NCC2CCN(C(=O)OC(C)(C)C)CC2)c1 [Compound 1806]  5.6 nM
21. CC(C)c1cccc(C(C)(C)NC(=O)N[C@H]2CC[C@H](Oc3ccc(C(=O)O)cc3)CC2)c1 [Compound 1956]  3.9 nM

— patent US20110098322A1, “PREPARATION OF NOVEL 1,3-S[…] AS INHIBITORS OF SOLUBLE EPOXIDE HYDROLASE” (priority 2007, published 2011)
